The values that follow come from patent US20100297765A1 (priority 2006, published 2010).

Assay [1] relates to pro-inflammatory cytokines (IL-1, IL-6, IL-8, TNF-alpha, INF-gamma). Nature of the assay: CBA flux cytometry dosage of cytokine secretion in culture supernatants of UV-irradiated reconstructed skin. The format is cell-based, human. Conditions: for efficiency on cell viability and synthesis of pro-inflammatory interleukins after solar UV stress: both parameters (cell mortality, pro-inflammatory molecules), UV-irradiated reconstructed skin; for TNFβ / IL1β / IL8 / IL6: reconstructed skin UV irradiated + formulation with 3% active, 10 days; for TNFβ: control 53, UV irradiated 152; for IL1β: control 76, UV irradiated 179; for IL8: control 275, UV irradiated 395; for IL6: control 379, UV irradiated 649. From the text:
The model was made according to the following protocol: • The reconstructed dermis model containing DCCs, macrophages and endothelial cells was made according to Example 12. • The reconstructed skin model containing LCs was made according to Example 14.

Assay [2] deals with keratinocytes and LCs or fibroblasts and DDC in co-culture. In words: Cytokine secretion in monolayer pluricellular co-culture models under the effect of an active ingredient. Type of assay: cell-based, human. Conditions: retinol 0.05% final concentration in culture medium for 3 days. From the text: 1 to 2.10^6 human keratinocytes and 1 to 2.10^6 human monocytes (obtained according to Example 1 or 2) are jointly grown in a nutritious medium, for example of the K-SFM type, in culture dishes, for example of the 6-well plate type. The joint culture is maintained for 6 days in a nutritious medium, for example of the K-SFM type, without adding any exogenous cytokine.
1 to 2.10^6 human fibroblasts and 1 to 2.10^6 human monocytes (obtained according to Example 1 or 2) are jointly grown in a nutritious medium, for example of the FBM type, in culture dishes for example of the 6-well plate type. The joint culture is maintained for 6 days in a nutritious medium, for example of the FBM type, without adding any exogenous cytokine.
In order to assess the irritating, sensitizing, allergizing potency, and to estimate a possible pro- or anti-inflammatory activity of an active ingredient intended for human skin, we quantify in the culture supernatants, secretion of cytokines, for example, IL-1, IL-6, IL-8, IL-10, TNF-[…] INF[…], according to the following protocol: • The model is made according to the protocol described in Example 3 or 4. • Retinol is then added into the culture medium at a final concentration of 0.05% for 3 days. • The culture supernatants are then recovered and analyzed.

Quercitine Caprylate [Flavenger]: in assay [1], the “efficiency on cell viability and synthesis of pro-inflammatory interleukins after solar UV stress” value is listed as “demonstrated efficiency with a possible tendency to restore the reference level”; the TNFβ stood at 89 pg/mL; the IL1β was determined as 97 pg/mL; the IL8 is 294 pg/mL. In addition, in assay [1], the IL6 is reported as 426 pg/mL.
Hesperitine Laurate [Flavagrum]: in assay [1], the “efficiency on cell viability and synthesis of pro-inflammatory interleukins after solar UV stress” value is “demonstrated efficiency with a possible tendency to restore the reference level”; the TNFβ was 105 pg/mL; the IL1β came out at 125 pg/mL; the IL8 is 312 pg/mL. In addition, the IL6 in assay [1] is listed as 452 pg/mL.
On to `CC1=C(/C=C/C(C)=C/C=C/C(C)=C/CO)C(C)(C)CCC1` [retinol, Retinol], for which the “secretion of pro-inflammatory cytokines” value in assay [2] was “stimulation of secretion of pro-inflammatory cytokines”.
